From ChEMBL document CHEMBL1681742, “Novel second generation analogs of eribulin. Part I: Compounds containing a lipophilic C32 side chain overcome P-glycoprotein susceptibility” (Bioorg Med Chem Lett, 2011) come the findings set out here.

The nature of data set [1]: Antiproliferative activity against human MES-SA cells assessed as growth inhibition. Type of data set: functional, cell-based.
The nature of data set [2]: Cytotoxicity against human IMR90 cells up to 1 uM. Type of data set: cell-based. Conditions: imr-90.
The subject of the next data set is HCT-15. The data set can be described thus: Antiproliferative activity against human HCT15 cells assessed as growth inhibition. It counts as functional, cell-based.
For a further data set, the system named is DLD-1. Description: Antiproliferative activity against human DLD1 cells assessed as growth inhibition. Type of data set: functional, cell-based.
A short description of data set [3]: Antiproliferative activity against P-gp overexpressing human MES-SA/Dx5-Rx1 cells assessed as growth inhibition. It counts as functional.
A short description of data set [4]: Fold resistance, ratio of IC50 for antiproliferative activity for P-gp overexpressing human MES-SA/Dx5-Rx1cells to IC50 for antiproliferative activity for human MES-SA cells.

Regarding `C=C1C[C@@H]2CC[C@@]34C[C@H]5O[C@H]6[C@@H](O3)[C@H]3O[C@H](CC[C@@H]3O[C@H]6[C@H]5O4)CC(=O)C[C@@H]3[C@@H](OC)[C@@H](C[C@@H](COC(C)=O)OC(C)=O)O[C@H]3C[C@H]3O[C@@H](CC[C@@H]1O2)C[C@@H](C)C3=C`, the IC50 is 0.32 nM in data set [1], 0.32 nM in the data set on HCT-15, 0.44 nM in the data set with DLD-1 and 2.77 nM in data set [3]. In data set [2], the Activity result is “Non-toxic”. Also, the “Ratio IC50” value in data set [4] stood at 8.78.

On to `C=C1C[C@@H]2CC[C@@]34C[C@H]5O[C@H]6[C@@H](O3)[C@H]3O[C@H](CC[C@@H]3O[C@H]6[C@H]5O4)CC(=O)C[C@@H]3[C@@H](OC)[C@@H](CC)O[C@H]3C[C@H]3O[C@@H](CC[C@@H]1O2)C[C@@H](C)C3=C`, for which the IC50 in data set [1] came to 1.06 nM; in data set [3], 1.36 nM. The Activity entry in data set [2] is listed as “Non-toxic”. Besides, in data set [4], the “Ratio IC50” value is on record as 1.81.

In the case of `C=C1C[C@@H]2CC[C@@]34C[C@H]5O[C@H]6[C@@H](O3)[C@H]3O[C@H](CC[C@@H]3O[C@H]6[C@H]5O4)CC(=O)C[C@@H]3[C@@H](OC)[C@@H](C[C@@H](CN=[N+]=[N-])OC)O[C@H]3C[C@H]3O[C@@H](CC[C@@H]1O2)C[C@@H](C)C3=C`, the IC50 is 0.44 nM in data set [1], 0.48 nM with HCT-15, 0.78 nM with DLD-1 and 1.86 nM in data set [3]. Also, the Activity entry in data set [2] was “Non-toxic”. The “Ratio IC50” value in data set [4] is 4.19.

For `C=C1C[C@@H]2CC[C@@]34C[C@H]5O[C@H]6[C@@H](O3)[C@H]3O[C@H](CC[C@@H]3O[C@H]6[C@H]5O4)CC(=O)C[C@@H]3[C@@H](OC)[C@@H](C[C@@H](CO)OC)O[C@H]3C[C@H]3O[C@@H](CC[C@@H]1O2)C[C@@H](C)C3=C`, the IC50 in data set [1] was 0.3 nM; in the data set with HCT-15, 0.67 nM; in the data set with DLD-1 it was 0.75 nM; in data set [3] it was 11.3 nM. In data set [2], the Activity entry is on record as “Non-toxic”. Also, the “Ratio IC50” value in data set [4] is on record as 37.73.

On to `C=C1C[C@@H]2CC[C@@]34C[C@H]5O[C@H]6[C@@H](O3)[C@H]3O[C@H](CC[C@@H]3O[C@H]6[C@H]5O4)CC(=O)C[C@@H]3[C@@H](OC)[C@@H](C[C@@H](CN=[N+]=[N-])OCc4ccccc4)O[C@H]3C[C@H]3O[C@@H](CC[C@@H]1O2)C[C@@H](C)C3=C`, for which the IC50 in data set [1] came to 4.83 nM; in the data set with HCT-15, 7.08 nM; with DLD-1, 10.6 nM; in data set [3], 36.7 nM. Further, the Activity result in data set [2] is on record as “Non-toxic”. Besides, in data set [4], the “Ratio IC50” value amounted to 7.6.

As for `C=CCO[C@H](CO)C[C@H]1O[C@H]2C[C@H]3O[C@@H](CC[C@@H]4O[C@@H](CC[C@@]56C[C@H]7O[C@H]8[C@@H](O5)[C@H]5O[C@H](CC[C@@H]5O[C@H]8[C@H]7O6)CC(=O)C[C@@H]2[C@H]1OC)CC4=C)C[C@@H](C)C3=C`, the IC50 in data set [1] was determined as 0.24 nM; with HCT-15 it was 0.22 nM; in the data set with DLD-1, 0.2 nM; in data set [3] it was 4.13 nM. For the same molecule, in data set [2], the Activity result was “Non-toxic”. In data set [4], the “Ratio IC50” value worked out at 17.19.

As to `C=C1C[C@@H]2CC[C@@]34C[C@H]5O[C@H]6[C@@H](O3)[C@H]3O[C@H](CC[C@@H]3O[C@H]6[C@H]5O4)CC(=O)C[C@@H]3[C@@H](OC)[C@@H](CC(=O)O)O[C@H]3C[C@H]3O[C@@H](CC[C@@H]1O2)C[C@@H](C)C3=C`, the IC50 turned out to be 12.4 nM in data set [1], 18.3 nM with HCT-15, 17.6 nM with DLD-1 and 95.5 nM in data set [3]. For the same molecule, the Activity entry in data set [2] is on record as “Non-toxic”. Also, the “Ratio IC50” value in data set [4] amounted to 7.72.

As for `C=C1C[C@@H]2CC[C@@]34C[C@H]5O[C@H]6[C@@H](O3)[C@H]3O[C@H](CC[C@@H]3O[C@H]6[C@H]5O4)CC(=O)C[C@@H]3[C@@H](OC)[C@@H](C[C@H](O)CO)O[C@H]3C[C@H]3O[C@@H](CC[C@@H]1O2)C[C@@H](C)C3=C`, the IC50 in data set [1] amounted to 0.03 nM; in the data set on HCT-15, 0.22 nM; in the data set with DLD-1 it was 0.54 nM; in data set [3] it was 6.5 nM. Further, in data set [2], the Activity result is given as “Non-toxic”. Also, the “Ratio IC50” value in data set [4] is recorded as 216.5.

`C=C1C[C@@H]2CC[C@@]34C[C@H]5O[C@H]6[C@@H](O3)[C@H]3O[C@H](CC[C@@H]3O[C@H]6[C@H]5O4)CC(=O)C[C@@H]3[C@@H](OC)[C@@H](CCCO)O[C@H]3C[C@H]3O[C@@H](CC[C@@H]1O2)C[C@@H](C)C3=C`: the IC50 in data set [1] came to 0.3 nM; in the data set on HCT-15 it was 0.4 nM; in the data set on DLD-1, 0.47 nM; in data set [3], 5.67 nM. The Activity result in data set [2] is on record as “Non-toxic”. Further, the “Ratio IC50” value in data set [4] is 18.88.

Turning to `C=C1C[C@@H]2CC[C@@]34C[C@H]5O[C@H]6[C@@H](O3)[C@H]3O[C@H](CC[C@@H]3O[C@H]6[C@H]5O4)CC(=O)C[C@@H]3[C@@H](OC)[C@@H](C[C@H](O)COCC)O[C@H]3C[C@H]3O[C@@H](CC[C@@H]1O2)C[C@@H](C)C3=C`, the IC50 in data set [1] was determined as 0.2 nM; in the data set with HCT-15, 0.23 nM; in the data set with DLD-1, 0.27 nM; in data set [3], 2.24 nM. In addition, the Activity result in data set [2] was “Non-toxic”. In addition, the “Ratio IC50” value in data set [4] turned out to be 11.2.

Take `C=C1C[C@@H]2CC[C@@]34C[C@H]5O[C@H]6[C@@H](O3)[C@H]3O[C@H](CC[C@@H]3O[C@H]6[C@H]5O4)CC(=O)C[C@@H]3[C@@H](OC)[C@@H](CCOC)O[C@H]3C[C@H]3O[C@@H](CC[C@@H]1O2)C[C@@H](C)C3=C`: the IC50 in data set [1] turned out to be 0.19 nM; with HCT-15 it was 0.24 nM; in the data set with DLD-1, 0.38 nM; in data set [3] it was 0.78 nM. The Activity entry in data set [2] is recorded as “Non-toxic”. Also, the “Ratio IC50” value in data set [4] is listed as 4.08.

Regarding `COc1cccc2c1C(=O)c1c(O)c3c(c(O)c1C2=O)C[C@@](O)(C(=O)CO)C[C@@H]3O[C@H]1C[C@H](N)[C@H](O)[C@H](C)O1` [DOXORUBICIN], the figures for the half-inhibitory concentration (IC50) (in data set [1]; in the data set on HCT-15; in data set [3]) were 26.4 nM, 154 nM and 2700 nM, respectively. Moreover, in data set [2], the Activity entry is reported as “Non-toxic”. Moreover, in data set [4], the “Ratio IC50” value was 134.

As for `C=C1C[C@@H]2CC[C@@]34C[C@H]5O[C@H]6[C@@H](O3)[C@H]3O[C@H](CC[C@@H]3O[C@H]6[C@H]5O4)CC(=O)C[C@@H]3[C@@H](OC)[C@@H](C[C@@H](CC#N)OC)O[C@H]3C[C@H]3O[C@@H](CC[C@@H]1O2)C[C@@H](C)C3=C`, the IC50 is 0.4 nM in data set [1], 0.61 nM with HCT-15, 1.05 nM in the data set with DLD-1 and 3.9 nM in data set [3]. Further, the Activity result in data set [2] is recorded as “Non-toxic”. Further, the “Ratio IC50” value in data set [4] is given as 9.86.

Take `C=C1C[C@@H]2CC[C@@]34C[C@H]5O[C@H]6[C@@H](O3)[C@H]3O[C@H](CC[C@@H]3O[C@H]6[C@H]5O4)CC(=O)C[C@@H]3[C@@H](OC)[C@@H](C[C@H]4COCCO4)O[C@H]3C[C@H]3O[C@@H](CC[C@@H]1O2)C[C@@H](C)C3=C`: the IC50 in data set [1] came out at 1 nM; with HCT-15, 1.24 nM; in the data set with DLD-1, 0.88 nM; in data set [3], 23 nM. In addition, the Activity result in data set [2] is reported as “Non-toxic”. Also, the “Ratio IC50” value in data set [4] is given as 22.96.

As to `C=C1C[C@@H]2CC[C@@]34C[C@H]5O[C@H]6[C@@H](O3)[C@H]3O[C@H](CC[C@@H]3O[C@H]6[C@H]5O4)CC(=O)C[C@@H]3[C@@H](OC)[C@@H](C[C@H](O)COC(C)=O)O[C@H]3C[C@H]3O[C@@H](CC[C@@H]1O2)C[C@@H](C)C3=C`, the concentration for half-maximal inhibition (IC50) is 0.11 nM in data set [1] and 3.47 nM in data set [3]. Moreover, in data set [2], the Activity result is “Non-toxic”. Also, the “Ratio IC50” value in data set [4] came to 33.

`CC[C@]1(O)C[C@@H]2CN(CCc3c([nH]c4ccccc34)[C@@](C(=O)OC)(c3cc4c(cc3OC)N(C)[C@H]3[C@@](O)(C(=O)OC)[C@H](OC(C)=O)[C@]5(CC)C=CCN6CC[C@]43[C@@H]65)C2)C1` [VINBLASTINE]: the IC50 in data set [1] was 2.28 nM; with HCT-15, 28.5 nM; in data set [3] it was 440 nM. In addition, the Activity result in data set [2] is listed as “Non-toxic”. The “Ratio IC50” value in data set [4] is given as 224.18.

`CC(=O)O[C@H]1C(=O)[C@@]2(C)[C@H]([C@H](OC(=O)c3ccccc3)[C@]3(O)C[C@H](OC(=O)[C@H](O)[C@@H](NC(=O)c4ccccc4)c4ccccc4)C(C)=C1C3(C)C)[C@]1(OC(C)=O)CO[C@@H]1C[C@@H]2O` [PACLITAXEL]: the values for the IC50 in data set [1] and in data set [3] were 2.96 nM and greater than 1000 nM, respectively. Besides, in data set [2], the Activity entry is reported as “Non-toxic”. In addition, the “Ratio IC50” value in data set [4] was greater than 338.
